Measurements: US6777544B2, “Polyamide nucleic acid derivatives and agents and processes for preparing them” (Aventis Pharma Deutschland GmbH, priority 2000, dated 2004)

Key:
complementary DNA = assay: Melting temperature (Tm) of PNA with complementary DNA; type: binding; settings: 140 mM KCl, 10 mM sodium dihydrogen phosphate, 0.1 mM EDTA (pH 7.4); oligomer 0.5 to 1 OD260 per ml
Description: (§1) The melting temperatures were determined using an HP 8452A diode-array spectrophotometer, an HP 89090A Peltier element, and HP Temperature Control Software Rev. B5.1 (from Hewlett Packard). Measurements were taken in 0.5° C./min steps in 140 mM KCl, 10 mM sodium dihydrogen phosphate, 0.1 mM EDTA (pH 7.4) as the buffer. The oligomer concentration was from 0.5 to 1 OD260 per ml.

complementary RNA = assay: Melting temperature (Tm) of PNA with complementary RNA; type: binding; settings: 140 mM KCl, 10 mM sodium dihydrogen phosphate, 0.1 mM EDTA (pH 7.4); oligomer 0.5 to 1 OD260 per ml
Description: as §1

REH cells = assay: Inhibiting cell proliferation (cell density); type: cell-based, human; settings: 10 μM
Description: The sequence of PNA-13 is directed against the translation start of the Ha-ras mRNA. REH cells (human pre-B leukemia cells, DSM ACC 22) or A549 tumor cells were cultured, at 37° C. and under 5% CO2, in OptiMEM (Gibco BRL) containing 10% fetal calf serum (FCS, GIBCO-BRL). The cell density for the assay was approx. 1×10^6/ml. The PNA-13 (10 μM) was incubated with the cells in 24-well plates. After incubating at 37° C. and under 5% CO2 for 96 hours, the cell density was determined. Mean values for the cell density were determined from 3 individual wells at a given PNA concentration.

COS cells = assay: Cell uptake after fluorescence labeling (fluorescence microscopy); type: cell-based; settings: PNA solution 10 μM, 37° C., examined after 2, 4 and 16 hours, C-terminally fluorescein-labeled, compared with labeled PNA-6
Description: COS cells were allowed to grow to confluence in Dulbecco's MEM (DMEM), which had been supplemented with 10% FCS, in 5 cm Petri dishes. The cells were washed twice with serum-free DM EM. An area of approx. 1 cm^2 was scratched out in the middle of the Petri dish using a sterile needle. The PNA solution (10 μM) under investigation was applied in this area. The dish was incubated at 37° C. under a CO2 atmosphere. After 2, 4, and 16 hours, the cells were examined by fluorescence microscopy. For this, the cells were washed four times with serum-free DM EM, covered with a cover slip, and evaluated under the fluorescence microscope or by phase contrast.
In order to investigate the cell uptake, PNA-6 and PNA-13 were labeled as indicated directly below with fluorescein at the C terminus and then examined microscopically.

Row | Substance | Tm (DNA) (complementary DNA) | Tm (RNA) (complementary RNA) | inhibition of cell proliferation (REH cells; 96 hours, 37° C., 5% CO2) | inhibition of proliferation compared with a corresponding phosphorothioate oligonucleotide (REH cells; after >4 days of incubation) | cell uptake (COS cells)
1 | Ac-HN-tat tcc gtc at-hex [Reference, reference compound] | 41.9 °C | 56.6 °C |  |  | 
2 | Biotin-p-{t(oeg) at tcc gtc at}-hex [PNA-12] | 43.6 °C | 57.9 °C |  |  | 
3 | Fluorescein-p-{t(oeg) at tcc gtc at}-hex (TATTCCGTCAT; chemistry not fully specified) [PNA-14] | 42.5 °C | 56.7 °C |  |  | 
4 | Hexadecyl-O-p-{t(oeg) at tcc gtc at}-hex (TATTCCGTCAT; chemistry not fully specified) [PNA-13] | 46.7 °C | 58.9 °C | inhibits proliferation of the REH cells | greater than that brought about by a corresponding phosphorothioate oligonucleotide | taken up more efficiently into the cells
5 | Phosphate-{t(oeg)-at tcc gtc at}-hex (TATTCCGTCAT; chemistry not fully specified) [PNA-6] | 44.0 °C | 57.5 °C |  |  | 
